Entries after “also recorded” stand apart in the source; their conditions may differ.
Experiments:
SH-SY5Y cells = test: Cell viability assay (WST-1), Aβ1-40 induced cell death; assay type: cell-based, Human; conditions: for effect on Aβ1-40 induced cell death (cell viability): 25 μM Aβ1-40, 24 hr, compound at concentration below 100 ng/mL (FIG. 3)
Experimental: Human […] SH-SY5Y cells were cultured in minimum essential medium supplemented with 10% (v/v) heat-inactivated fetal bovine serum, 50% (v/v) F-12 nutrient mixture, and 1% (v/v) antibiotic mixture comprised of penicillin and streptomycin. Cells were kept at 37° C. in a humidified atmosphere of 5% CO2. SH-SY5Y cells were plated at a density of 1×10^5 viable cells per well in 96-well plates for future analysis.
The cell viability was determined by the WST-1 assay. […] of Aβ1-40 peptide stock solution were prepared by dissolving 1 mg Aβ1-40 in 1 mL trifluoroethanol and centrifuging to remove any insoluble particles. The peptide solution was then dried under nitrogen gas and re-dissolved in dimethyl sulfoxide, and incubated at 4° C. for 12 hr to provide the final peptide stock solution. For the viability assay, cells (1×10^5 cells/well in a 96-well microtiter plate) were treated with either 25 μM Aβ peptides only (as a positive control), or with the combination of 25 μM Aβ peptides and the compound of formula (I), in a concentration ranged from 1 to 1,000 ng/mL. The reaction was performed in a total volume of 200 μL per well for 24 hr at 37° C. in a humidified atmosphere containing 5% CO2 before cell viability was assayed. The WST-1 solution (10 μL) was added to each well, and the wells were incubated for another 4-5 hr at room temperature. The optical density was measured at 405 nm using a microplate reader.
In this example, the effects of compounds of formula (I) on Aβ1-40 induced cell toxicity were investigated by cell viability assay.

Aβ1-40 [1] = target: T1, Aβ1-40 (Homo sapiens, UniProt P05067); test: Free radical assay (DCFH-DA), cell free; assay type: biochemical; conditions: 25 μM Aβ1-40, versus Aβ1-40 alone (FIG. 4)
T1 construct: Aβ1-40 peptide was synthesized in a solid-phase synthesizer; made in house; host or cells: chemical solid-phase peptide synthesis (no expression host)
T1 sequence (P05067 672-711 limits assumed): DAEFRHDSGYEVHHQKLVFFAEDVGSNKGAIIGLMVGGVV
Experimental: The level of free radicals (H2O2) induced by Aβ1-40 peptide in cell free conditions was analyzed using the dichlorofluorescein diacetate (DCFH-DA) assay. DCF-DA was deacetylated with 50% (v/v) 0.05 M NaOH for 30 min and neutralized (pH 7.5) to a final concentration of 200 μM as a stock solution. This stock solution was kept on ice in the dark until future use. The reactions were carried out in a 96-well plate (200 μL/well) containing 25 μM of Aβ1-40 diluted from the stock solution, 20 μM deacetylated DCF, 5 μM horseradish peroxidase, in Dulbecco's phosphate-buffered saline, pH 7.5. To determine the inhibitory effects of the compound of formula (I) on free radical formation, various concentrations of the compound of formula (I) were added and incubated at 37° C. Fluoresence readings were recorded on a microplate reader (FlexSTation 3, MD) with the excitation wavelength of 485 nm and the emission wavelength of 530 nm. The fluorescence intensity of DCF (H2O2 level) was measured every 6 hr and from 0 to 72 hr.

Aβ1-40 [2] = target: T1, Aβ1-40; test: FT-IR spectroscopy of the secondary structure of Aβ1-40; assay type: biochemical; conditions: day 1 and day 5 (FIG. 2)
Experimental: The secondary structure of Aβ1-40 with or without the compound of formula (I) was investigated using FT-IR spectrometer (Jasco, FT-IR/4100) equipped with an attenuated reflection accessory to determine the conformation of Aβ1-40 during the aggregative process. 100 μL of 0.1 mM Aβ solution was coated on ZnSe crystals and dried overnight in a desiccators at room temperature. The spectra were recorded at 1,500 to 1,800 cm^−1 with a 1 cm^−1 interval. The peak was identified from the first derivation of the IR spectrum in the amide I region, and the secondary structure was analyzed using Original 6.0 software.
It is known that during the aggregation process, the conformation of Aβ1-40 is converted to either […]. […] Results are depicted in FIG. 2.

Aβ1-40 [3] = target: T1, Aβ1-40; test: Peptide aggregation assay (Thioflavin-T fluorescence); assay type: biochemical; conditions: 25 μM Aβ1-40, 100 ng/mL compound, 37° C., day 5 (FIG. 1)
Experimental: Thioflavin-T (ThT) was used to monitor the aggregation state of Aβ1-40. 25 μM of Aβ1-40 was freshly diluted from the peptide stock solution in phosphate buffer (pH 7.4), for peptide aggregation assay. All samples containing a peptide concentration of 25 μM in the absence or presence of 100 ng/mL the compound of formula (I) and 3 μM ThT were incubated at 37° C. Samples containing either Aβ peptide only (control), or Aβ with the compound of formula (I), taking daily from day 0 to day 7, were used to measure the ThT sensitivity. The fluorescence measurement was performed on a microplate reader (FlexSTation 3, MD), with excitation and emission wavelength respectively set at 440 nm and 485 nm.
In this example, the effects of the compound of formula (I) on the aggregation of Aβ1-40 were investigated using the Th-T fluorescence assay described above in the Material and Methods section. Results are depicted in FIG. 1.

With `CC1=C(SCCCCO)C(=O)c2ccccc2C1=O` [VK3-3] the “effect on Aβ1-40 induced cell death (cell viability)” value (shortened to “effect on Aβ1-40 induced cell death”) (SH-SY5Y cells) was “smaller effects”, the “Aβ1-40 induced free radical levels (DCF fluorescence intensity)” value (shortened to “Aβ1-40 induced free radical levels”) (Aβ1-40 [1]) was “resulted even more free radicals as compared with the control” and the “conformation of Aβ1-40 (FT-IR, 1650 cm^−1 random coil vs 1625 cm^−1 β-sheet)” value (Aβ1-40 [2]) was “converted to β-sheet structure”.

`O=C1C=C(SCCO)C(=O)c2ccccc21` [VK3-199] was tested, and the “effect on the aggregation of Aβ1-40 (Th-T fluorescence intensity)” value (from here on “effect on the aggregation”) (Aβ1-40 [3]) was “capable of preventing Aβ1-40 from aggregation”, the “effect on Aβ1-40 induced cell death” value (SH-SY5Y cells) was “smaller effects” and the “Aβ1-40 induced free radical levels” value (Aβ1-40 [1]) was “resulted even more free radicals as compared with the control”. For the same molecule, the “conformation of Aβ1-40 (FT-IR, 1650 cm^−1 random coil vs 1625 cm^−1 β-sheet)” value (Aβ1-40 [2]) was “remained mostly in random coil conformation”.

In the case of `CC1=C(SCCO)C(=O)c2ccccc2C1=O` [VK3-1], the “effect on the aggregation” value (Aβ1-40 [3]) is reported as “capable of enhancing the aggregation of Aβ1-40”, the “effect on Aβ1-40 induced cell death” value (SH-SY5Y cells) is reported as “smaller effects” and the “Aβ1-40 induced free radical levels” value (Aβ1-40 [1]) is reported as “resulted even more free radicals as compared with the control”. For the same molecule, the “conformation of Aβ1-40 (FT-IR, 1650 cm^−1 random coil vs 1625 cm^−1 β-sheet)” value (Aβ1-40 [2]) was “converted to β-sheet structure”.

With `CC1=C(SCC(O)CO)C(=O)c2ccccc2C1=O` (centres unmarked) [VK3-9] the “effect on the aggregation” value (Aβ1-40 [3]) was “capable of preventing Aβ1-40 from aggregation; also recorded: most potent”, the cell survival rate (SH-SY5Y cells; 25 μM Aβ1-40, 1 ng/mL compound) was 50% and the cell survival rate (SH-SY5Y cells; 25 μM Aβ1-40, 100 ng/mL compound) was 88%. The cell survival rate (SH-SY5Y cells; 25 μM Aβ1-40, 1,000 ng/mL compound) was 92%, the “effect on Aβ1-40 induced cell death” value (SH-SY5Y cells) was “exhibited the ability of preventing Aβ1-40 induced cell death” and the “Aβ1-40 induced free radical levels” value (Aβ1-40 [1]) was “effectively inhibited”. For the same molecule, the “conformation of Aβ1-40 (FT-IR, 1650 cm^−1 random coil vs 1625 cm^−1 β-sheet)” value (Aβ1-40 [2]) was “remained mostly in random coil conformation”.

`CC1=C(SCCCCCCO)C(=O)c2ccccc2C1=O` [VK3-4] was tested, and the “effect on the aggregation” value (Aβ1-40 [3]) was “capable of enhancing the aggregation of Aβ1-40” and the “effect on Aβ1-40 induced cell death” value (SH-SY5Y cells) was “smaller effects”.

In the case of `O=C1C(SCC(O)CO)=C(SCC(O)CO)C(=O)c2ccccc21` (centres unmarked) [VK3-232], the “effect on Aβ1-40 induced cell death” value (SH-SY5Y cells) is reported as “no difference from that of the control”.

With `CC1=C(O)C(=O)c2ccccc2C1=O` [VK3-221] the “effect on the aggregation” value (Aβ1-40 [3]) was “capable of preventing Aβ1-40 from aggregation”, the “effect on Aβ1-40 induced cell death” value (SH-SY5Y cells) was “smaller effects” and the “conformation of Aβ1-40 (FT-IR, 1650 cm^−1 random coil vs 1625 cm^−1 β-sheet)” value (Aβ1-40 [2]) was “remained mostly in random coil conformation”.

For `CC1=C(SCCC(=O)O)C(=O)c2ccccc2C1=O` [VK3-6], the “effect on the aggregation” value (Aβ1-40 [3]) was “capable of preventing Aβ1-40 from aggregation; also recorded: most potent” and the “conformation of Aβ1-40 (FT-IR, 1650 cm^−1 random coil vs 1625 cm^−1 β-sheet)” value (Aβ1-40 [2]) was “remained mostly in random coil conformation”.

With `CC1=C(SCC(C)O)C(=O)c2ccccc2C1=O` (centres unmarked) [VK3-8] the “effect on the aggregation” value (Aβ1-40 [3]) was “capable of preventing Aβ1-40 from aggregation”, the “effect on Aβ1-40 induced cell death” value (SH-SY5Y cells) was “smaller effects” and the “Aβ1-40 induced free radical levels” value (Aβ1-40 [1]) was “resulted even more free radicals as compared with the control”. For the same molecule, the “conformation of Aβ1-40 (FT-IR, 1650 cm^−1 random coil vs 1625 cm^−1 β-sheet)” value (Aβ1-40 [2]) was “remained mostly in random coil conformation”.

In the case of `CC1=C(SCCCO)C(=O)c2ccccc2C1=O` [VK3-2], the “effect on the aggregation” value (Aβ1-40 [3]) is reported as “capable of preventing Aβ1-40 from aggregation”, the “effect on Aβ1-40 induced cell death” value (SH-SY5Y cells) is reported as “smaller effects” and the “Aβ1-40 induced free radical levels” value (Aβ1-40 [1]) is reported as “resulted even more free radicals as compared with the control”. The “conformation of Aβ1-40 (FT-IR, 1650 cm^−1 random coil vs 1625 cm^−1 β-sheet)” value (Aβ1-40 [2]) was “remained mostly in random coil conformation”.

In the case of `O=C1C(SCCO)=C(SCCO)C(=O)c2ccccc21` [VK3-231], the “effect on Aβ1-40 induced cell death” value (SH-SY5Y cells) is reported as “smaller effects” and the “Aβ1-40 induced free radical levels” value (Aβ1-40 [1]) is reported as “resulted even more free radicals as compared with the control”.

`O=C1C(SCCCCCCO)=C(SCCCCCCO)C(=O)c2ccccc21` [VK3-233-2d] was tested, and the “effect on the aggregation” value (Aβ1-40 [3]) was “capable of enhancing the aggregation of Aβ1-40”, the “effect on Aβ1-40 induced cell death” value (SH-SY5Y cells) was “no difference from that of the control” and the “Aβ1-40 induced free radical levels” value (Aβ1-40 [1]) was “resulted even more free radicals as compared with the control”. For the same molecule, the “conformation of Aβ1-40 (FT-IR, 1650 cm^−1 random coil vs 1625 cm^−1 β-sheet)” value (Aβ1-40 [2]) was “converted to β-sheet structure”.

For `CC1=C(NCCN2CCOCC2)C(=O)c2ccccc2C1=O` [VK3-224], the “effect on the aggregation” value (Aβ1-40 [3]) was “capable of preventing Aβ1-40 from aggregation”, the “effect on Aβ1-40 induced cell death” value (SH-SY5Y cells) was “no difference from that of the control” and the “conformation of Aβ1-40 (FT-IR, 1650 cm^−1 random coil vs 1625 cm^−1 β-sheet)” value (Aβ1-40 [2]) was “remained mostly in random coil conformation”.

`CC1=C(SCCCCCCCCCCCO)C(=O)c2ccccc2C1=O` [VK3-5] was tested, and the “effect on the aggregation” value (Aβ1-40 [3]) was “capable of enhancing the aggregation of Aβ1-40”, the “effect on Aβ1-40 induced cell death” value (SH-SY5Y cells) was “smaller effects” and the “Aβ1-40 induced free radical levels” value (Aβ1-40 [1]) was “effectively inhibited”. The “conformation of Aβ1-40 (FT-IR, 1650 cm^−1 random coil vs 1625 cm^−1 β-sheet)” value (Aβ1-40 [2]) was “converted to β-sheet structure”.

Source: patent US20150166476A1, “METHODS FOR TREATING NEURODEGENERATIVE DISEASES ASSOCIATED WITH AGGREGATION OF AMYLOID-BETA” (priority 2013, published 2015)
